The values that follow come from PMC11123039, “The Helix Ring Peptide U11 from the Venom of the Ant, Tetramorium bicarinatum, Acts as a Putative Pore-Forming Toxin” (Membranes, 2024).

The test system of one data set is Shaker IR. Nature of the data set: Two-electrode voltage clamp, Shaker IR. It is filed as cell-based, Drosophila melanogaster. To be noted: control toxin, 2.5 μM; Xenopus laevis oocytes, ND96, two-electrode voltage clamp.
Data set [1] concerns voltage-gated sodium (Nav) channels. To be noted: vertebrates and invertebrates; blocks synaptic transmission in insect CNS; cited from earlier work. The text has this:
Ant venom peptides have previously been classified based on their structure into three main groups: linear, dimeric or inhibitor cystine knot (ICK)-like peptides [for a review, see [2]]. An alternative approach for classification follows their biological activity, with two main characteristics: cytolytic or neurotoxic. […] They often act as amphipathic, helical structures forming pores through biological membranes, disturbing t ...

In data set [2] the test system is vertebrate and invertebrate cells. To be noted: component of Apis mellifera venom; cited from earlier work. The text has this:
Ant venom peptides have previously been classified based on their structure into three main groups: linear, dimeric or inhibitor cystine knot (ICK)-like peptides [for a review, see [2]]. An alternative approach for classification follows their biological activity, with two main characteristics: cytolytic or neurotoxic. […] Such a phenomenon is indicative of cytolysis or cytotoxicity and may be explained by pore formation. […] In non-injected control oocytes, the current ...

For charybdotoxin, the “block of Shaker IR currents” value in the data set with Shaker IR was “clear block”.
Consider poneratoxin, for which the “modulation of Nav channels” value in data set [1] is “modulate voltage-gated sodium (Nav) channels of both vertebrates and invertebrates”.
Turning to melittin, the “cytolysis via pore formation” value in data set [2] is on record as “cytolysis via a process of pore formation”.
